Source: PMC9120017, “Inhibition mechanism of the chloride channel TMEM16A by the pore blocker 1PBC” (Nature Communications, 2022)
Where two headings read alike, the source gives them in different places.

Molecular target: T1, mouse TMEM16A mutant R515A (Mus musculus, UniProt Q8BHY3, R515A)
T1 construct: expressed in transfected cells; host or cells: HEK293T
T1 sequence (Q8BHY3 1-960 R515A): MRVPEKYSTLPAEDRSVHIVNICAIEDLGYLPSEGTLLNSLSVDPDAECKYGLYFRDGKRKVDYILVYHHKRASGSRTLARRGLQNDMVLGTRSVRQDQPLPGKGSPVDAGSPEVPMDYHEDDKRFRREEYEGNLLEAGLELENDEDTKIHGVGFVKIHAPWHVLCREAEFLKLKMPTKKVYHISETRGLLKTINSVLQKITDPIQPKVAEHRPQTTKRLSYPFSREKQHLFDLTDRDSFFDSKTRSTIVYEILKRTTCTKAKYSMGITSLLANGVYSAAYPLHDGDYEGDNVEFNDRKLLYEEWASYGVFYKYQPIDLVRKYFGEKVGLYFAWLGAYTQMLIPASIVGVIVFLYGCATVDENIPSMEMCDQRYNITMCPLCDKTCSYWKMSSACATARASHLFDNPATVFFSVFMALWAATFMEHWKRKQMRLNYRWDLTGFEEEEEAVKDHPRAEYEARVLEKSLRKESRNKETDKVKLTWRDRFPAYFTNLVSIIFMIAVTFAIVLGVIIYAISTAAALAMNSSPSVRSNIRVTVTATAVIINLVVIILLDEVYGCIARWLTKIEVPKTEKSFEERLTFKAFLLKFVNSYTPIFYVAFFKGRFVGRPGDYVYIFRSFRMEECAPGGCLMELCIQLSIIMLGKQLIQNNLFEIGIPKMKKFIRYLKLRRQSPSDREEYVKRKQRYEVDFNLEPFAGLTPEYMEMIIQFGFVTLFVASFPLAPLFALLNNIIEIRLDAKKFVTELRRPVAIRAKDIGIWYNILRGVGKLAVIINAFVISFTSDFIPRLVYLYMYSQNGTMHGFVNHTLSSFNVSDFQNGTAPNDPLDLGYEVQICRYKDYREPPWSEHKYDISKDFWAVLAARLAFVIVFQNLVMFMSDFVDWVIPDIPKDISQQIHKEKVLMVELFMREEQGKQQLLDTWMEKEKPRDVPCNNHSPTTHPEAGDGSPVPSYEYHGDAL
Assay: Inside-out patch recording of 1PBC block, mutant R515A
Type: cell-based
Description: HEK293T cells (ATCC CRL-1573) were maintained in Dulbecco’s modified Eagle’s medium (DMEM; Sigma-Aldrich) supplemented with 10 U ml^−1 penicillin, 0.1 mg ml^−1 streptomycin (Sigma-Aldrich), 2 mM L-glutamine (Sigma-Aldrich), and 10% FBS (Sigma-Aldrich) in a humidified atmosphere containing 5% CO2 at 37 °C. HEK293S GnTI^− cells (ATCC CRL-3022) were maintained in HyClone HyCell TransFx-H medium (GE Healthcare) supplemented with 10 U ml^−1 penicillin, 0.1 mg ml^−1 streptomycin, 4 mM L-glutamine, 0.15% poloxamer 188 (Sigma-Aldrich), and 1% FBS in an atmosphere containing 5% CO2 at 185 rpm at 37 °C. The ac splice variant of mouse TMEM16A (UniProt ID: Q8BHY3), mouse TMEM16B (UniProt ID: Q8CFW1), or mouse TMEM16F (UniProt ID: Q6P9J9) bearing a 3C cleavage site, a Venus YFP, a Myc tag, and a Streptavidin-binding peptide (SBP) downstream of the open reading frame in a modified pcDNA3.1 vector (Invitrogen) were used as described previously[21],[31]. Mutations were introduced using a modified QuikChange method[58] and were verified by sequencing.
HEK293T cells were transfected with 3–4 μg DNA per 6 cm Petri dish using the calcium phosphate co-precipitation method and were used within 24–96 h after transfection. Recordings were performed on inside-out patches excised from HEK293T cells expressing the construct of interest. Patch pipettes were pulled from borosilicate glass capillaries (O.D. 1.5 mm, I.D. 0.86 mm, Sutter Instrument) and were fire-polished with a microforge (Narishige) before use. Pipette resistance was typically 3–8 MΩ when filled with the recording solutions detailed below. Seal resistance was typically 4 GΩ or higher. Voltage-clamp recordings were made using Axopatch 200B, Digidata 1550, and Clampex 10.7 (Molecular Devices). Analog signals were filtered with the in-built 4-pole Bessel filter at 10 kHz and were digitized at 20 kHz. Solution exchange was achieved using a gravity-fed system through a theta glass pipette mounted on an ultra-fast piezo-driven stepper (Siskiyou). […] All recordings were performed at 20 °C.
A symmetrical ionic condition was used throughout. Stock solution with Ca^2+-EGTA contained 150 mM NaCl, 5.99 mM Ca(OH)2, 5 mM EGTA, and 10 mM HEPES at pH 7.40. Stock solution with EGTA contained 150 mM NaCl, 5 mM EGTA, and 10 mM HEPES at pH 7.40. Free Ca^2+ concentrations were adjusted by mixing the stock solutions at the required ratios calculated using the WEBMAXC program (http://web.stanford.edu/~cpatton/webmaxcS.htm). Patch pipettes were filled with the stock solution with Ca^2+-EGTA, which has a free Ca^2+ concentration of 1 mM. 1PBC (ChemBridge) stock was reconstituted in anhydrous DMSO (Sigma-Aldrich) at 100 mM and stored at −20 °C. Working solutions with 1PBC were prepared by serial dilution. Unless otherwise stated, experiments were performed at a saturating Ca^2+ concentration as shown in Supplementary Table 1 and the primary data were corrected for current rundown as described previously[21],[25].
Concentration-response relations, obtained from the ratio of the I-V plots before and after the application of the blocker, were fitted to the Hill equation,1 I/Imax=1/1+IC50/[blocker]^h where I/Imax is the normalized current responses, IC50 defines the concentration at which inhibition is at its half-maximum, and h is the Hill coefficient.

`N#Cc1c(C(F)(F)F)cc(O)n2c1nc1ccccc12` [1PBC] was tested, and the IC50 (0 mV, 4 µM Ca2+) was 120 µM, the remaining activity at 10 µM (10 µM 1PBC, +80 mV, saturating Ca2+ (4 µM), read-out: I/Imax) was 91.2% and the remaining activity at 10 µM (10 µM 1PBC, -80 mV, saturating Ca2+ (4 µM), read-out: I/Imax) was 93.3%. It also gave a remaining activity at 30 µM (30 µM 1PBC, +80 mV, saturating Ca2+ (4 µM), read-out: I/Imax) of 74.8%, a remaining activity at 30 µM (30 µM 1PBC, -80 mV, saturating Ca2+ (4 µM), read-out: I/Imax) of 86.5% and a remaining activity at 100 µM (100 µM 1PBC, +80 mV, saturating Ca2+ (4 µM), read-out: I/Imax) of 47.7%. For the same molecule, the remaining activity at 100 µM (100 µM 1PBC, -80 mV, saturating Ca2+ (4 µM), read-out: I/Imax) was 61.6%, the remaining activity at 10 µM (1PBC 10, 0 mV, read-out: fraction of unblocked current) was 92.5% and the remaining activity at 10 µM (1PBC 10, 20 mV, read-out: fraction of unblocked current) was 92.3%. It also gave a remaining activity at 10 µM (1PBC 10, 40 mV, read-out: fraction of unblocked current) of 92.8%, a remaining activity at 10 µM (1PBC 10, 60 mV, read-out: fraction of unblocked current) of 91.6% and a remaining activity at 10 µM (1PBC 10, 80 mV, read-out: fraction of unblocked current) of 91.2%. It also gave a remaining activity at 10 µM (1PBC 10, 100 mV, read-out: fraction of unblocked current) of 93.9%, a remaining activity at 10 µM (1PBC 10, 120 mV, read-out: fraction of unblocked current) of 90.5% and a remaining activity at 10 µM (1PBC 10, 140 mV, read-out: fraction of unblocked current) of 93.5%. The remaining activity at 10 µM (1PBC 10, -20 mV, read-out: fraction of unblocked current) was 92.7%, the remaining activity at 10 µM (1PBC 10, -40 mV, read-out: fraction of unblocked current) was 91.8% and the remaining activity at 10 µM (1PBC 10, -60 mV, read-out: fraction of unblocked current) was 91.4%. It also gave a remaining activity at 10 µM (1PBC 10, -80 mV, read-out: fraction of unblocked current) of 93.3%, a remaining activity at 10 µM (1PBC 10, -100 mV, read-out: fraction of unblocked current) of 92.8% and a remaining activity at 10 µM (1PBC 10, -120 mV, read-out: fraction of unblocked current) of 91.8%. The remaining activity at 10 µM (1PBC 10, -140 mV, read-out: fraction of unblocked current) was 93.3%, the remaining activity at 30 µM (1PBC 30, 0 mV, read-out: fraction of unblocked current) was 79.3% and the remaining activity at 30 µM (1PBC 30, 20 mV, read-out: fraction of unblocked current) was 77.3%. It also gave a remaining activity at 30 µM (1PBC 30, 40 mV, read-out: fraction of unblocked current) of 75.6%, a remaining activity at 30 µM (1PBC 30, 60 mV, read-out: fraction of unblocked current) of 73.2% and a remaining activity at 30 µM (1PBC 30, 80 mV, read-out: fraction of unblocked current) of 74.8%. For the same molecule, the remaining activity at 30 µM (1PBC 30, 100 mV, read-out: fraction of unblocked current) was 73.1%, the remaining activity at 30 µM (1PBC 30, 120 mV, read-out: fraction of unblocked current) was 70.9% and the remaining activity at 30 µM (1PBC 30, 140 mV, read-out: fraction of unblocked current) was 70%. It also gave a remaining activity at 30 µM (1PBC 30, -20 mV, read-out: fraction of unblocked current) of 81.4%, a remaining activity at 30 µM (1PBC 30, -40 mV, read-out: fraction of unblocked current) of 84% and a remaining activity at 30 µM (1PBC 30, -60 mV, read-out: fraction of unblocked current) of 84.5%. For the same molecule, the remaining activity at 30 µM (1PBC 30, -80 mV, read-out: fraction of unblocked current) was 86.5%, the remaining activity at 30 µM (1PBC 30, -100 mV, read-out: fraction of unblocked current) was 87.5% and the remaining activity at 30 µM (1PBC 30, -120 mV, read-out: fraction of unblocked current) was 86.9%. It also gave a remaining activity at 30 µM (1PBC 30, -140 mV, read-out: fraction of unblocked current) of 85.6%, a remaining activity at 100 µM (1PBC 100, 0 mV, read-out: fraction of unblocked current) of 55% and a remaining activity at 100 µM (1PBC 100, 20 mV, read-out: fraction of unblocked current) of 53.1%. It also gave a remaining activity at 100 µM (1PBC 100, 40 mV, read-out: fraction of unblocked current) of 51%, a remaining activity at 100 µM (1PBC 100, 60 mV, read-out: fraction of unblocked current) of 49.1% and a remaining activity at 100 µM (1PBC 100, 80 mV, read-out: fraction of unblocked current) of 47.7%. For the same molecule, the remaining activity at 100 µM (1PBC 100, 100 mV, read-out: fraction of unblocked current) was 46.8%, the remaining activity at 100 µM (1PBC 100, 120 mV, read-out: fraction of unblocked current) was 47.6% and the remaining activity at 100 µM (1PBC 100, 140 mV, read-out: fraction of unblocked current) was 48%. The remaining activity at 100 µM (1PBC 100, -20 mV, read-out: fraction of unblocked current) was 56.9%, the remaining activity at 100 µM (1PBC 100, -40 mV, read-out: fraction of unblocked current) was 59% and the remaining activity at 100 µM (1PBC 100, -60 mV, read-out: fraction of unblocked current) was 60.7%. It also gave a remaining activity at 100 µM (1PBC 100, -80 mV, read-out: fraction of unblocked current) of 61.6%, a remaining activity at 100 µM (1PBC 100, -100 mV, read-out: fraction of unblocked current) of 61.8% and a remaining activity at 100 µM (1PBC 100, -120 mV, read-out: fraction of unblocked current) of 62.9%. It also gave a remaining activity at 100 µM (1PBC 100, -140 mV, read-out: fraction of unblocked current) of 62.4%, an IC50 (20 mV, 4 µM Ca2+) of 110 µM and an IC50 (40 mV, 4 µM Ca2+) of 102 µM. For the same molecule, the IC50 (60 mV, 4 µM Ca2+) was 92.1 µM, the “log-fold IC50 (change of mutant vs WT)” value (80 mV) was 1.6299 and the IC50 (80 mV, 4 µM Ca2+) was 91.4 µM. The IC50 (100 mV, 4 µM Ca2+) was 88.7 µM, the IC50 (120 mV, 4 µM Ca2+) was 84.4 µM and the IC50 (140 mV, 4 µM Ca2+) was 86.1 µM. The IC50 (-20 mV, 4 µM Ca2+) was 131 µM, the IC50 (-40 mV, 4 µM Ca2+) was 145 µM and the IC50 (-60 mV, 4 µM Ca2+) was 153 µM. The IC50 (-80 mV, 4 µM Ca2+) was 166 µM, the IC50 (-100 mV, 4 µM Ca2+) was 169 µM and the IC50 (-120 mV, 4 µM Ca2+) was 172 µM. It also gave an IC50 (-140 mV, 4 µM Ca2+) of 168 µM, an IC50 (R515A, V 0 mV) of 120 µM and an IC50 (R515A, V 20 mV) of 110 µM. It also gave an IC50 (R515A, V 40 mV) of 102 µM, an IC50 (R515A, V 60 mV) of 92.1 µM and an IC50 (R515A, V 80 mV) of 91.4 µM. The IC50 (R515A, V 100 mV) was 88.7 µM, the IC50 (R515A, V 120 mV) was 84.4 µM and the IC50 (R515A, V 140 mV) was 86.1 µM. The IC50 (R515A, V -20 mV) was 131 µM, the IC50 (R515A, V -40 mV) was 145 µM and the IC50 (R515A, V -60 mV) was 153 µM. The IC50 (R515A, V -80 mV) was 166 µM, the IC50 (R515A, V -100 mV) was 169 µM and the IC50 (R515A, V -120 mV) was 172 µM. The IC50 (R515A, V -140 mV) was 168 µM.
